Results published in article PMC5725665, “Discovery of a Highly Selective Cell‐Active Inhibitor of the Histone Lysine Demethylases KDM2/7” (Angewandte Chemie (International Ed. in English), 2017).

Assays:
Experiment in all cases: biochemical
JARID1A (KDM5A) = JARID1A (KDM5A) (Homo sapiens, UniProt P29375); parameters: AlphaScreen histone demethylase activity assay
Text: (§1) A base‐mediated 5‐endo‐trig cyclization of a C‐2‐substituted aromatic imine afforded the racemic indoline core with two adjacent stereocenters. Subsequent acylation of the indoline ring system conferred stability towards oxidation and provided a handle for modulating polarity. Finally, metal‐catalysed cross‐coupling of the aryl bromide provided access to a variety of linkers between the indoline core and pyrrolidine capping group. In total, 45 racemic compounds were synthesized, and IC50 values for inhibition of KDM2A were determined using two orthogonal enzyme activity assays: AlphaScreen25 and RapidFire MS26 (see Section S3.1 in the Supporting Information for complete inhibition data). Key structure–activity relationships are summarized below (Scheme 1 B, compounds 2–12). […] In immunofluorescence assays using HeLa cells ectopically expressing catalytically active KDM2A, a dose‐dependent increase in H3K36me2 staining was observed upon incubation with (S,S)‐6, reflecting augmented cellular H3K36me2 levels (Figure 2 A and Section S3.3). […] To profile its selectivity, (S,S)‐6 was tested for inhibitory activity against a panel of KDMs, methyllysine binding motifs, and epigenetic enzymes.

JMJD2A (KDM4A) [1] = target: T1, JMJD2A (KDM4A) (Homo sapiens, UniProt O75164); parameters: AlphaScreen histone demethylase activity assay; conditions: read-out: KDM4A % Inhib. (18.75 uM)
T1 sequence (O75164 1-1064): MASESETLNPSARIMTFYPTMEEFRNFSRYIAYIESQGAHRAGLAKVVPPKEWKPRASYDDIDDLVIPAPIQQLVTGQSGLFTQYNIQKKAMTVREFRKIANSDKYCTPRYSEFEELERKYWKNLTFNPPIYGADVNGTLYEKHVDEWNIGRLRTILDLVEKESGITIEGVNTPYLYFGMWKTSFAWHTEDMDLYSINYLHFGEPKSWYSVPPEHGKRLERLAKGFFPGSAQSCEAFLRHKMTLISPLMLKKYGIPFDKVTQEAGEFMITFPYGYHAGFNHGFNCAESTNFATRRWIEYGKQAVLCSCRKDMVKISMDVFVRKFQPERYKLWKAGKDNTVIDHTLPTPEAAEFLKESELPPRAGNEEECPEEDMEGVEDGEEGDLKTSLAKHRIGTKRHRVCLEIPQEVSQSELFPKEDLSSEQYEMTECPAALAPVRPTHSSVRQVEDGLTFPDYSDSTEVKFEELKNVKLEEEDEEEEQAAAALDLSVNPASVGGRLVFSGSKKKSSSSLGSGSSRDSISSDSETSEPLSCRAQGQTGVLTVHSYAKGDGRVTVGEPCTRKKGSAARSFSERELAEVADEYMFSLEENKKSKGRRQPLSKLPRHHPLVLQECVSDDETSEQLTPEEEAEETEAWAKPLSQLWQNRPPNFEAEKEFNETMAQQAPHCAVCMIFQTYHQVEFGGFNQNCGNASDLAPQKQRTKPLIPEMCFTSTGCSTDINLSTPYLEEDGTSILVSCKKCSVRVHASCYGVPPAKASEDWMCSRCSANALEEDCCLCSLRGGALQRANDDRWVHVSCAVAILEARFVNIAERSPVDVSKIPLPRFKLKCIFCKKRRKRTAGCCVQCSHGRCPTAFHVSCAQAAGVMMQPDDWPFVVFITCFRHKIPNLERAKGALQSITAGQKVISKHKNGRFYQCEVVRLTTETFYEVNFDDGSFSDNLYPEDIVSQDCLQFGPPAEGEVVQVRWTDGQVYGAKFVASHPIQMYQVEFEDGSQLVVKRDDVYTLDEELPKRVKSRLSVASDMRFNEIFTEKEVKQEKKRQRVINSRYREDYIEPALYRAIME

JMJD2A (KDM4A) [2] = target: T1, JMJD2A (KDM4A); parameters: AlphaScreen histone demethylase activity assay; conditions: for IC50: read-out: KDM4A pIC50 (converted); for KDM4A pIC50: inhibitor
Text: as §1

KDM2A = target: T2, KDM2A (Homo sapiens, UniProt Q9Y2K7); parameters: RapidFire MS histone peptide demethylation assay; conditions: for KDM2A RapidFire pIC50: inhibitor
T2 construct: isolated enzyme
T2 sequence (Q9Y2K7 1-517 limits assumed): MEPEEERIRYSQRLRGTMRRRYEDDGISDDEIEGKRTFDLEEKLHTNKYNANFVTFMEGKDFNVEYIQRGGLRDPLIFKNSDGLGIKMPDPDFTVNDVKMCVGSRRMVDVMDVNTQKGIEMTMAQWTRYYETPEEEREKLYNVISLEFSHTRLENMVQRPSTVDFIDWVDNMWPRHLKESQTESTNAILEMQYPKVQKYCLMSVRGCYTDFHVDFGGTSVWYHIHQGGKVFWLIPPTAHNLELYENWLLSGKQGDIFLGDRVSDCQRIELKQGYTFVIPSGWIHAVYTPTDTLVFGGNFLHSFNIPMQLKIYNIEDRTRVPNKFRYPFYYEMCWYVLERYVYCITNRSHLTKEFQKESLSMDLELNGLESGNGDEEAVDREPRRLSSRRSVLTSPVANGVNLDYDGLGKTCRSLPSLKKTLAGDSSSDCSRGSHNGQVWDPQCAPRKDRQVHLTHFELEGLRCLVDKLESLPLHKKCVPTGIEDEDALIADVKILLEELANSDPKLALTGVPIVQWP
Procedure: [formula] Scheme 1 A) General synthetic strategy for racemic synthesis of KDM2A inhibitors. Reagents and conditions: i) Zn powder (10 equiv), NH4Cl (15 equiv), 5:1 acetone/H2O or H2, Pd/C (10 % w/w), EtOAc; ii) ArCHO (1.3 equiv), MgSO4 (5 equiv), PhMe or ArCHO (1.3 equiv), pyrrolidine (0.1 equiv), 3 Å sieves, CH2Cl2; iii) KO^tBu (1.1 equiv), PhMe, 0 °C; iv) R^3COCl (2–5 equiv), pyridine (2–5 equiv), CH2Cl2; v) metal‐catalysed cross‐coupling. B) Key structure–activity relationships. IC50 values were determined by RapidFire MS and confirmed by AlphaScreen. All compounds are racemic. C) Catalytic enantioselective synthesis. Reagents and conditions: i) CsOH⋅H2O (2.0 equiv), catalyst 14/16 (10 mol %), PhMe, −30 °C. Catalyst 14: 89 %, d.r. 10:1, e.r. 88:12; catalyst 16: 84 %, d.r. 7:1, e.r. 17:83; ii) CH3COCl (2.0 equiv), pyridine (2.0 equiv), CH2Cl2; iii) H2, Pd/C (10 % w/w), 88 % (2 steps); iv) K2CO3 (5 equiv), Br(CH2)7Br (4 equiv), acetone, reflux, 38 %; v) K2CO3 (5 equiv) pyrrolidine (4 equiv), CH3CN, 65 %; vi) PhN(SO2CF3)2 (1.1 equiv), DIPEA (2.0 equiv), CH2Cl2, 0 °C, 85 %; vii) 7‐pyrrolidine‐hept‐1‐yne (1.5 equiv), PdCl2(PPh3)2 (5 mol %), CuI (5 mol %), HN(^iPr)2, 75 °C, 79 %; viii) H2, Pd/C (10 % w/w), MeOH, 74 %. DIPEA=(^iPr)2NEt. A base‐mediated 5‐endo‐trig cyclization of a C‐2‐substituted aromatic imine afforded the racemic indoline core with two adjacent stereocenters. Subsequent acylation of the indoline ring system conferred stability towards oxidation and provided a handle for modulating polarity. Finally, metal‐catalysed cross‐coupling of the aryl bromide provided access to a variety of linkers between the indoline core and pyrrolidine capping group. In total, 45 racemic compounds were synthesized, and IC50 values for inhibition of KDM2A were determined using two orthogonal enzyme activity assays: AlphaScreen25 and RapidFire MS26 (see Section S3.1 in the Supporting Information for complete inhibition data). Key structure–activity relationships are summarized below (Scheme 1 B, compounds 2–12).

Sequence of JARID1A (KDM5A) (P29375 whole entry): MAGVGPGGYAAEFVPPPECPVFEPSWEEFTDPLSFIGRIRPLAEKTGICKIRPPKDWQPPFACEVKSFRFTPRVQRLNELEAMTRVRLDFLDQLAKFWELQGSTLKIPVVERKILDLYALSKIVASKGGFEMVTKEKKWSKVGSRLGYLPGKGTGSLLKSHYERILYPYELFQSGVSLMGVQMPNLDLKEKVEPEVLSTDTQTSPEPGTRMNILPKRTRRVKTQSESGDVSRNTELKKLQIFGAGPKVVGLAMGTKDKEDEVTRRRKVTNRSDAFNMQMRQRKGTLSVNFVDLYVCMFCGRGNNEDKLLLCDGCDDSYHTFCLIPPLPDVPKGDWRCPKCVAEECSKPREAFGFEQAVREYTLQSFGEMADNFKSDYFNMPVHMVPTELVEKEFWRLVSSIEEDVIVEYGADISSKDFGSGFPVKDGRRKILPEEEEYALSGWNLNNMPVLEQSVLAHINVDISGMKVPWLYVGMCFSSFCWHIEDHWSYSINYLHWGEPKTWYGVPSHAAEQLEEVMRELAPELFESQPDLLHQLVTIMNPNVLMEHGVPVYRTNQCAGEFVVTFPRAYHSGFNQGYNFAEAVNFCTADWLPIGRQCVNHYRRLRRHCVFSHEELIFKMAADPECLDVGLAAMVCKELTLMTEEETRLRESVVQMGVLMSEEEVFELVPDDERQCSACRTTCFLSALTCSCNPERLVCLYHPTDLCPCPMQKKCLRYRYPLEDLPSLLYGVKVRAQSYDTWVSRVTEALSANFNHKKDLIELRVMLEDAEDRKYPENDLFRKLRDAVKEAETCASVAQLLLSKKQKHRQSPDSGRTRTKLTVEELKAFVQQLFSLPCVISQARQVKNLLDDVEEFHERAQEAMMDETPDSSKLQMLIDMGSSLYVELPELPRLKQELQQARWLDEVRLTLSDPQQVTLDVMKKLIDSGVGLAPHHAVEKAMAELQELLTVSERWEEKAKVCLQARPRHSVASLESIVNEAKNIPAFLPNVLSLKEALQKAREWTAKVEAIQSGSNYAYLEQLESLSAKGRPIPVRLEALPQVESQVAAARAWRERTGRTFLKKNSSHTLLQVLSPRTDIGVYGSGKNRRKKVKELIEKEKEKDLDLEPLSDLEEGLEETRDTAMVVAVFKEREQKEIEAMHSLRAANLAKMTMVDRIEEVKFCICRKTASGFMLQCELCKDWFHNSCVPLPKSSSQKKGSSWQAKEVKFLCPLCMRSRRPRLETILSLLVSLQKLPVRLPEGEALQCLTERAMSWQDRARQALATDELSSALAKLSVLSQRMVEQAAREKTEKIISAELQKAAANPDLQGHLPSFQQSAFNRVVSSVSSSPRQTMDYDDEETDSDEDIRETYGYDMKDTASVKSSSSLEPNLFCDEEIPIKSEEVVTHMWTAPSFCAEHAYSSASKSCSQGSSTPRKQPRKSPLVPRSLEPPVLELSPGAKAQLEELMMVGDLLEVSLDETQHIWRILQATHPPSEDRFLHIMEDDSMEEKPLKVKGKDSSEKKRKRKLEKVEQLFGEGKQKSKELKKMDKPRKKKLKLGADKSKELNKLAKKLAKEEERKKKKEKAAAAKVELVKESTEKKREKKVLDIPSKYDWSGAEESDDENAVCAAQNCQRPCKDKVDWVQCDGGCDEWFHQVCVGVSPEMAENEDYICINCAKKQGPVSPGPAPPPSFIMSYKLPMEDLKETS

CC(=O)N1c2ccccc2[C@](C#N)(c2ccccc2)[C@H]1c1cncc(OCCCCCCCN2CCCC2)c1 (racemic) [compound 3, 3]
inhibition at 50 µM (JARID1A (KDM5A)): 24%
inhibition at 18.75 µM (JMJD2A (KDM4A) [1]): -5.4%

CC(=O)N1c2ccccc2[C@](C#N)(c2ccccc2)[C@H]1c1cncc(C#CCCCCCN2CCCC2)c1 (racemic) [compound 4, 4]
inhibition at 50 µM (JARID1A (KDM5A)): 39%
inhibition at 18.75 µM (JMJD2A (KDM4A) [1]): 10.2%

CC(=O)N1c2ccccc2[C@](C#N)(c2ccccc2)[C@H]1c1cncc(CCCCCCCN2CCCC2)c1 (racemic) [compound 6, 6]
inhibition at 50 µM (JARID1A (KDM5A)): 25.5%
inhibition at 18.75 µM (JMJD2A (KDM4A) [1]): -1.1%

CC(=O)N1c2ccccc2[C@](C#N)(c2ccccc2)[C@H]1c1ccc(CCCCCCCN2CCCC2)o1 (racemic) [compound 7, 7]
inhibition at 50 µM (JARID1A (KDM5A)): 47.5%
inhibition at 18.75 µM (JMJD2A (KDM4A) [1]): 8.5%

CC(=O)N1c2ccccc2[C@@](C#N)(c2ccccc2)[C@H]1c1cncc(OCCCCCCCN2CCCC2)c1 (racemic) [compound 145, (2RS,3SR)-1-Acetyl-3-phenyl-2-(5-((7-(pyrrolidin-1-yl)heptyl)oxy)pyridin-3-yl)indoline-3-carbonitrile]
inhibition at 50 µM (JARID1A (KDM5A)): 36.7%
IC50 (JARID1A (KDM5A); read-out: KDM5A pIC50 (converted)): > 50.1 µM
IC50 (JMJD2A (KDM4A) [2]): > 20 µM
IC50 (KDM2A; read-out: KDM2A RapidFire pIC50 (converted)): 1.01 µM
inhibition at 18.75 µM (JMJD2A (KDM4A) [1]): -9.59%

CC(=O)N1c2ccccc2[C@](C#N)(c2ccccc2)[C@H]1c1cncc(OCCOCCOCCN2CCCC2)c1 (racemic) [compound 148, (2RS,3RS)-1-Acetyl-3-phenyl-2-(5-(2-(2-(2-(pyrrolidin-1-yl)ethoxy)ethoxy)ethoxy)pyridin-3-yl)indoline-3-carbonitrile]
IC50 (JMJD2A (KDM4A) [2]): > 20 µM
inhibition at 18.75 µM (JMJD2A (KDM4A) [1]): -5.9%

CC(=O)N1c2ccccc2[C@@](C#N)(c2ccccc2)[C@H]1c1cccc(/C=C/CCCCCN2CCCC2)c1 (relative stereo) [compound 126, 126]
KDM4A pIC50 (JMJD2A (KDM4A) [2]): < 4.7
KDM2A RapidFire pIC50 (KDM2A): 5.983
inhibition at 18.75 µM (JMJD2A (KDM4A) [1]): 27.8%

CC(=O)N1c2ccccc2[C@](C#N)(c2ccccc2)[C@H]1c1ccc(C#CCCCCCN2CCCC2)o1 (relative stereo) [compound 132, 132]
inhibition at 50 µM (JARID1A (KDM5A)): 49.1%
KDM5A pIC50 (JARID1A (KDM5A); inhibitor): < 4.3
KDM4A pIC50 (JMJD2A (KDM4A) [2]): < 4.7
KDM2A RapidFire pIC50 (KDM2A): 5.990
inhibition at 18.75 µM (JMJD2A (KDM4A) [1]): 18.3%

CC(=O)N1c2ccccc2[C@](C#N)(c2ccccc2)[C@H]1c1cncc(CCCCCCCN2CCCC2)c1 [(R,R)-6]
inhibition at 50 µM (JARID1A (KDM5A)): 40%
inhibition at 18.75 µM (JMJD2A (KDM4A) [1]): 7.8%

CC(=O)N1c2ccccc2C(C#N)(c2ccccc2)C1c1cc(CCCCCCCN2CCCC2)co1 (stereo not shown) [compound 8, 8]
inhibition at 50 µM (JARID1A (KDM5A)): 23%
inhibition at 18.75 µM (JMJD2A (KDM4A) [1]): 21.8%

CCOC(=O)C1(C#N)c2ccccc2N(C(C)=O)C1c1cncc(C=CCCCCCN2CCCC2)c1 (stereo not shown) [compound 124, 124]
inhibition at 50 µM (JARID1A (KDM5A)): 20%
inhibition at 18.75 µM (JMJD2A (KDM4A) [1]): -12.7%

CC(=O)N1c2ccccc2C(C#N)(c2ccccc2)C1c1cncc(C#CCCCCCN2CCCC2)c1 (stereo not shown) [compound 130, 130]
inhibition at 50 µM (JARID1A (KDM5A)): 30.9%
inhibition at 18.75 µM (JMJD2A (KDM4A) [1]): -1.3%
